Measured values from BindingDB's records for patent US11440899 (Merck Patent GmbH, 2022).

What was measured:
[1] = molecular target: T1, Inhibitor of nuclear factor kappa-B kinase subunit epsilon (Homo sapiens, UniProt Q14164); experiment: IKKe Biochemical Assay
T1 sequence (Q14164 whole entry): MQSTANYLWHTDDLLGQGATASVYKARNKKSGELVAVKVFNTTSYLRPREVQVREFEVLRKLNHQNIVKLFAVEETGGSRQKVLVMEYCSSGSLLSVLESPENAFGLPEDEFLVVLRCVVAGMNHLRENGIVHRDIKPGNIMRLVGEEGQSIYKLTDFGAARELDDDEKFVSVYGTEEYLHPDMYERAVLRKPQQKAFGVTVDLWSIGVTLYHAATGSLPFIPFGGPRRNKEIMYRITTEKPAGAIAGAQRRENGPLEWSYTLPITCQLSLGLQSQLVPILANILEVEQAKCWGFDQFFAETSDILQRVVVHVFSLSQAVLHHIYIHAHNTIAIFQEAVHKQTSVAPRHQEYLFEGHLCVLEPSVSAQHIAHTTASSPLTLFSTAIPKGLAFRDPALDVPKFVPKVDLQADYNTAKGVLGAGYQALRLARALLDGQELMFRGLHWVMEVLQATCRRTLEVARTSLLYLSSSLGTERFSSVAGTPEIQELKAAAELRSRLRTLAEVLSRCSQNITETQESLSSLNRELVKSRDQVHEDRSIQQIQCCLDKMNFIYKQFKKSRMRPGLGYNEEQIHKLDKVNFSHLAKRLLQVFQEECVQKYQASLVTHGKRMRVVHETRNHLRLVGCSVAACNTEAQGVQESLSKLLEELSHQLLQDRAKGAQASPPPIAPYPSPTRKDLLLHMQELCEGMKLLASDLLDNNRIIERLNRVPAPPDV
Experimental: (§1) Test compounds were transferred into Labcyte polypropylene 384 well plates (P055-25) and diluted to 3 mM using DMSO. 3 mM test compounds were dispensed using Labcyte ECHO dose response module into Greiner 784075 plates (columns 3-12 and 13-22, 10 point 1:4) so that high concentration was 30 uM final. 100 uM of a reference compound (1 uM final high concentration). Backfilling was performed if necessary so that all wells contain 1% DMSO final:add 75 nl DMSO/well into columns 1, 2 and 24 using Labcyte Echo.add 75 nl 1.0 mM staurosporine/well into column 23 using Labcyte Echo (10 uM final)add 4.5 ul enzyme/well using multidrop dispenseradd 3 ul substrate/well using multidrop dispenserincubate at 25° C. for 90 min.add 7.5 ul 2× stop bufferread on labchip ez reader II using IKKε. jobRaw data files were opened in the Caliper LabChip Reviewer program (Version 3.0.265.0 SP2) and peak assignments were adjusted to reflect substrate first with the software's post-run analysis options. A spline-fit baseline was applied using the software's analysis algorithm.

[2] = molecular target: T2, Serine/threonine-protein kinase TBK1 (Homo sapiens, UniProt Q9UHD2); experiment: TBK Biochemical Assay
T2 sequence (Q9UHD2 whole entry): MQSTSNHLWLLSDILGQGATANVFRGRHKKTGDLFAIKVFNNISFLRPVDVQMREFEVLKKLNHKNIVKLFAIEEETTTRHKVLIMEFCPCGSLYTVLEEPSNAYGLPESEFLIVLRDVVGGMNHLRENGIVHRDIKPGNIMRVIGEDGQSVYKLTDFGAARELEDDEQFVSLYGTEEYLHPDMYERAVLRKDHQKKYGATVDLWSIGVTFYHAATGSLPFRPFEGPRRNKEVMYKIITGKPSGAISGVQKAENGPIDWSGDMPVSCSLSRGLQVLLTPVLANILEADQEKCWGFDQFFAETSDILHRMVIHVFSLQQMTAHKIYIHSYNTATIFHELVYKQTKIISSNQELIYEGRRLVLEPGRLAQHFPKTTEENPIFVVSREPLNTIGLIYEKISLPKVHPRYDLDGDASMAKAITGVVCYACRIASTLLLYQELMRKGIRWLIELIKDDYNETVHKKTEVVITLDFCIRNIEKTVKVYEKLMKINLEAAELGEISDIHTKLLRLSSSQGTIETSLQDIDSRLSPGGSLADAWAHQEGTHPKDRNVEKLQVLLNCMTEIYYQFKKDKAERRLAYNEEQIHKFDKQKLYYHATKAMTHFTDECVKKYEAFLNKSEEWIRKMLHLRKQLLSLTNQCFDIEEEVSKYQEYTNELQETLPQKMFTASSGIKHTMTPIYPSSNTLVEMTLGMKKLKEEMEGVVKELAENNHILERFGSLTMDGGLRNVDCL
Experimental: as §1, with “C. in Heidolph incubator” for “C.”, “buffer using multidrop dispenserread” for “bufferread”, “TBK1.jobRaw” for “IKKε. jobRaw”

Structure (SMILES): COc1nc(Nc2cc(-c3ccc(O[C@@H]4CCN(C(=O)[C@@H](C)O)CC4(F)F)c(C#N)c3)ncn2)ccc1N1CCN(C2COC2)CC1 [US11440899, Example 96]
- IC50 [1]: < 100 nM
- IC50 [2]: < 100 nM
